Measured values published in US20260297627A1, “MODULATION OF GLOBAL REGULATORY MECHANISMS AND BIOSYNTHETIC GENE CLUSTERS FOR SIMPLIFIED PRODUCTION OF NATURAL PRODUCTS” (priority 2023, published 2026).
Entries after “also recorded” stand apart in the source; their conditions may differ.

How the values were obtained:
[1] = system: X. indica ΔrpmM-O mutant (strain VII); experiment: Growth curve of X. indica ΔrpmM-O mutant (strain VII) with fed benzoic acid derivative; assay type: cell-based, Xenorhabdus indica
Procedure: To elucidate the influence of rpmM-O on biosynthesis, they were deleted together bases on pAR20 with the synthetic dsDNA fragments used for CRISPR/Cas12 mediated genome editing specific HA-L and R SEQ ID NOs 177-178 The resulting mutant ΔrpmM-O was then analysed for production and growth. Also with the addition of 3,4-AHBA, no growth and thus no production could be observed (FIG. 12 VII).
(§1) In order to analyze the growth curve, the strains were cultured in microtiter plates in a Tecan Spark microplate reader (FIG. 14). A comparison was initially made between strain V and strain VII with and without the addition of 3,4-AHBA (FIGS. 14 A and B). Furthermore, to investigate the sole effect of 3,4-AHBA on the cells, 3,4-AHBA was added to the cells in presence or not of the rpm BGC inducer IPTG (FIGS. 14A and B). […] Subsequently, in order to investigate the effect of the amino group on the benzoic acid, 3,4-DHBA was fed to both strains (FIGS. 14 C and D). […] It can therefore be concluded that the amino group is crucial for the bioactivity of rupshomycin.

X. indica strain V = experiment: Growth curve of X. indica strain V with fed benzoic acid derivative; assay type: cell-based, Xenorhabdus indica; details: with and without 3,4-AHBA, in presence or not of IPTG
Procedure: as §1

[2] = system: X. indica ΔrpmM-O mutant with empty vector; details: 3,4-AHBA and IPTG; empty vector control
Procedure: (§2) Addition of the inducer and benzoic acid was added from the start. The numbering I-IX corresponds to the strains in FIG. 12. A: growth of strain I culture with and without induction (1 mM IPTG), with and without addition of 3,4-AHBA. B: growth of strain V culture with and without induction, with and without addition of 3,4-AHBA. C: growth of strain I culture with and without induction, with and without addition of 3,4-DHBA. D: growth of strain V culture with and without induction, with and without addition of 3,4-DHBA. E: growth of induced and 3,4-AHBA supplemented strain VIII culture with vector expressing rpmMN or empty expression vector. F: growth of induced and 3,4-AHBA supplemented strain IX culture with vector expressing rpmO or empty expression vector.
(§3) Which of the rpmM-O genes are responsible for resistance to the biosynthesis product of the rpm BGC was the question addressed in the following studies. […] The influence of the vector was excluded by conjugating an empty vector into the strains as a control. […] Production of rupshomycins were performed in XPP3 medium with 2% (v/v) XAD-16 for in situ extraction.

[3] = system: X. indica ΔrpmM-O mutant with vector expressing rpmM and rpmN (strain VIII); details: 3,4-AHBA and IPTG; compared to empty vector control
Procedure: as §2, §3

[4] = system: X. indica ΔrpmM-O mutant with vector expressing rpmO (strain IX); details: 3,4-AHBA and IPTG; compared to empty vector control
Procedure: as §2, §3

proteasome = details: role: inhibitor; cited from earlier work

For Nc1cc(C(=O)O)ccc1O [3,4-AHBA, 3-amino-4-hydroxy benzoic acid], the growth ([1]; 3,4-AHBA fed, rpm BGC induced, 96 well microtiter plate, 24 hours) was “culture dies after induction; also recorded: no growth; also recorded: a weak growth was observed in the first 3 hours, which then quickly collapsed and fell below the optical density of the starting point of the experiment”, the growth (X. indica strain V) was “no particular growth differences were observed” and the growth [2] was “severe growth defect of the culture”. The growth [3] was “significant growth of the culture compared to the empty vector control” and the growth [4] was “no significant growth of the culture was observed compared to the empty vector control”.

For O=C(O)c1ccc(O)c(O)c1 [3,4-DHBA], the growth ([1]; 3,4-DHBA fed, induced vs non-induced culture) was “did not lead to the complete death of the ΔrpmM-O culture, but to a growth deficiency compared to the non-induced culture”.

In the case of CC(C)CCCCC/C=C/C=C/C(=O)N[C@H](C(=O)N[C@H]1CC(O)CCNC(=O)/C=C/C(C)NC1=O)[C@@H](C)O (some centres unmarked) [cepafungin I], the proteasome inhibition (proteasome) is listed as “potent proteasome inhibitors”.

In the case of CCCCCCC/C=C/C=C/C(=O)N[C@H](C(=O)N[C@H]1C[C@@H](O)CCNC(=O)/C=C/[C@H](C)NC1=O)[C@@H](C)O [glidobactin A], the proteasome inhibition (proteasome) is listed as “potent proteasome inhibitors”.
